From PubChem BioAssay AID2060348 (Molecular Pharmacology Branch, DTP, NCI, 2025)
Several values for one entry are separate records, joined by “and”; a condition that tells them apart may be missing. Identical values can stand only once.

Test system: 885724-159-R-J1-PDC spheroids viability
Assay: Anticancer human tumor 885724-159-R-J1-PDC patient-derived pancreatic adenocarcinoma cell line growth inhibition [TAK]
Settings: spheroids with HUVEC and MSC; for viability, T/C: stronger effect = lower value; for IC50: curve of compound
Excerpt: Combinatorial screen of targeted agents with TAK-243 and ipatasertib in multi-cell type tumor spheroids
A high-throughput screen of multi-cell type tumor spheroids was designed to identify active combinations of targeted small molecules and TAK-243 or ipatasertib. Complex spheroids include a stromal component modeled by human endothelial cells (HUVEC) and fibroblasts modeled by human mesenchymal stem cells (MSCs). The concentration ranges selected for each drug and investigational agent were based upon clinically achievable concentrations if the clinical Cmax of the agent was known.
Compounds. The drugs and investigational agents: TAK-243 (785004), ipatasertib (767898), everolimus (733504), selumetinib (741078), bortezomib (756655), trametinib (758246), ixazomib (758254), vemurafenib (761431), dabrafenib (764134), sapanisertib (764658), alpelisib (765974), and copanlisib (816437), were obtained from the National Cancer Institute (NCI) Developmental Therapeutics Program Chemical Repository. The FDA-approved anticancer drug set is available from the NCI Developmental Therapeutics Program. […] The stock solutions were prepared in dimethyl sulfoxide (DMSO, Sigma-Aldrich, St. Louis, MO, cat. D2650) at 800-fold the tested concentration and stored at -70 degrees C prior to their use. All drugs and investigational agents were tested over a range starting from a high concentration at or near the clinical Cmax and decreasing in half-log increments. If the clinical Cmax for an agent had not been determined, the highest concentration tested was 10 microM.
NCI60 Cell Culture. NCI60 cell lines were obtained from the NCI Developmental Therapeutics Program Tumor Repository. For each lot of cells, the Repository performed Applied Biosystems AmpFLSTR Identifiler testing with PCR amplification to confirm consistency with the published Identifier STR profile for each cell line. Cells were kept in continuous culture for no more than 20 passages. The optimal seeding densities for each of the cell lines at each time point assessed were determined prior to performing the concentration response studies. Briefly, the NCI60 human tumor lines were grown as monolayers in RPMI 1640 medium supplemented with 10% FBS and 2 mmol/L L-glutamine.
An additional 2 lines were from the NCI60 cell line panel including melanomas, MALME-3M and SK-MEL-2. Pooled donor human umbilical vein endothelial cells (HUVEC, Lonza, cat. CC-2519) and human mesenchymal stem cells (hMSC, Lonza, cat. PT-2501) were purchased from Lonza (Walkersville, MD).
PDMR cell lines were grown in complete medium (DC medium): Dulbecco's modified Eagle's medium (DMEM)/F12 supplemented with 5% fetal bovine serum (FBS), 2 mM L-glutamine, 100 U/mL penicillin and 100 µg/ml streptomycin, 0.4 µg/ml hydrocortisone, 10 ng/ml epidermal growth factor (EGF) recombinant human protein, 24 µg/mL adenine, and 0.1 mg/mL primocin. During culture from frozen stock vials, PDMR cells were cultured in the same medium containing 10 µM Y-27632 (see Table 3). The PDCs were cultured in complete DMEM/F12 media without 10 microM Y-27632 dihydrochloride for at least two passages prior to the screen. The pooled donor HUVEC and hMSC were cultured in endothelial cell growth medium 2 (PromoCell, Heidelberg, Germany, cat. C-22011) and mesenchymal stem cell growth medium 2 (PromoCell, cat. C-28009), respectively. For all experiments, HUVEC and hMSC were used at passages </=5.
For the pre-screen, cell seeding densities were determined from a titration spanning the range from 5,000 to 313 cells per well. The mct-spheroids including 60% malignant cells, 25% HUVEC and 15% MSC dispensed as a mixture into U-bottom Ultra-Low Attachment 384-well plates (Corning, NY)
High-throughput Drug Combination Screening.
Prior to their inoculation into 384-well plates, malignant cells, HUVEC, and hMSC were removed from T flasks using TrypLE express (Thermo Fisher Scientific, cat. 12605036) and harvested by centrifugation for 5 min at 233 x g. […]
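Also: spheroids exposed to drugs for seven days.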
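For viability, T/C in this document: 100% = DMSO vehicle control viability.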

Question: `CC(=O)Nc1cccc(-n2c(=O)n(C3CC3)c(=O)c3c(Nc4ccc(I)cc4F)n(C)c(=O)c(C)c32)c1` was tested. Which viability, T/C (compound 94.9 pM) did it give?
Answer: 89.3% and 117%

Question: And the viability, T/C (compound 0.0003 µM)?
Answer: 86.7% and 71.2%

Question: And the viability, T/C (compound 0.000949 µM)?
Answer: 53.9% and 55.8%

Question: What about the viability, T/C (compound 0.003 µM) of the same compound?
Answer: 37.1% and 40.6%

Question: What about the viability, T/C (compound 0.00949 µM) of the same compound?
Answer: 26.4% and 30.2%

Question: What about the viability, T/C (compound 0.03 µM) of the same compound?
Answer: 20.4%

Question: And the IC50?
Answer: 1.38 nM and 1.18 nM

Question: Which viability, T/C (compound 0.0316 µM) does the source give for `CC(C)(C)c1nc(-c2cccc(NS(=O)(=O)c3c(F)cccc3F)c2F)c(-c2ccnc(N)n2)s1` here?
Answer: 179% and 172%

Question: What about the viability, T/C (compound 0.1 µM) of the same compound?
Answer: 262% and 233%

Question: And the viability, T/C (compound 0.316 µM)?
Answer: 321% and 254%

Question: And the viability, T/C (compound 1 µM)?
Answer: 332% and 269%

Question: And the viability, T/C (compound 3.16 µM)?
Answer: 308% and 241%

Question: And the viability, T/C (compound 10 µM)?
Answer: 200% and 176%

Question: What about the IC50 of the same compound?
Answer: > 10000 nM

Question: Which viability, T/C (compound 31.6 pM) does the source give for `CC(C)CC(NC(=O)C(Cc1ccccc1)NC(=O)c1cnccn1)B(O)O` (stereo not given) here?
Answer: 114% and 102%

Question: And the viability, T/C (compound 0.0001 µM)?
Answer: 105% and 100%

Question: What about the viability, T/C (compound 0.000316 µM) of the same compound?
Answer: 104% and 93.8%

Question: What about the viability, T/C (compound 0.001 µM) of the same compound?
Answer: 99.3% and 87.3%

Question: What about the viability, T/C (compound 0.00316 µM) of the same compound?
Answer: 74.5% and 67.2%

Question: What about the viability, T/C (compound 0.01 µM) of the same compound?
Answer: 1.18% and 1.87%

Question: What about the IC50 of the same compound?
Answer: 4.63 nM and 4.18 nM

Question: For `CC(C)CC(NC(=O)CNC(=O)c1cc(Cl)ccc1Cl)B1OC(=O)CC(CC(=O)O)(C(=O)O)O1` (stereo not given), which viability, T/C (compound 0.000316 µM) is on record?
Answer: 98.6% and 104%

Question: What about the viability, T/C (compound 0.001 µM) of the same compound?
Answer: 101% and 96.8%

Question: And the viability, T/C (compound 0.00316 µM)?
Answer: 99.5% and 103%

Question: And the viability, T/C (compound 0.01 µM)?
Answer: 89.3% and 91.4%

Question: What about the viability, T/C (compound 0.0316 µM) of the same compound?
Answer: 19.3% and 15.8%

Question: And the viability, T/C (compound 0.1 µM)?
Answer: 1.47% and 1.1%

Question: And the IC50?
Answer: 19.1 nM and 18.8 nM

Question: Which results are given for `CC(C)NCC(C(=O)N1CCN(c2ncnc3c2C(C)CC3O)CC1)c1ccc(Cl)cc1` (stereo not given)?
Answer: viability, T/C (compound 0.3 µM): 64.1% [middle of 10 runs]; viability, T/C (compound 0.949 µM): 60.5% [middle of 10 runs]; viability, T/C (compound 3 µM): 55.2% [middle of 10 runs]; viability, T/C (compound 9.49 µM): 47.5% [middle of 10 runs]; viability, T/C (compound 30 µM): 32.8% [middle of 10 runs]

Question: Which viability, T/C (compound 0.000316 µM) does the source give for `CC(C)n1nc(-c2ccc3oc(N)nc3c2)c2c(N)ncnc21` here?
Answer: 104% and 108%

Question: What about the viability, T/C (compound 0.001 µM) of the same compound?
Answer: 103% and 95.1%

Question: And the viability, T/C (compound 0.00316 µM)?
Answer: 93.3% and 83.8%

Question: And the viability, T/C (compound 0.01 µM)?
Answer: 67.5% and 70.2%

Question: What about the viability, T/C (compound 0.0316 µM) of the same compound?
Answer: 54.2% and 51.1%

Question: What about the viability, T/C (compound 0.1 µM) of the same compound?
Answer: 46.1% and 46%

Question: What about the IC50 of the same compound?
Answer: 52.6 nM and 52.9 nM

Question: Which viability, T/C (compound 0.316 µM) does the source give for `CCCS(=O)(=O)Nc1ccc(F)c(C(=O)c2c[nH]c3ncc(-c4ccc(Cl)cc4)cc23)c1F` here?
Answer: 145% and 137%

Question: And the viability, T/C (compound 1 µM)?
Answer: 179% and 154%

Question: And the viability, T/C (compound 3.16 µM)?
Answer: 187% and 177%

Question: What about the viability, T/C (compound 10 µM) of the same compound?
Answer: 96.5% and 86.4%

Question: What about the viability, T/C (compound 31.6 µM) of the same compound?
Answer: 159% and 132%

Question: What about the viability, T/C (compound 100 µM) of the same compound?
Answer: 150% and 129%

Question: What about the IC50 of the same compound?
Answer: > 100000 nM

Question: What does the source list for `COC1CC2CCC(C)C(O)(O2)C(=O)C(=O)N2CCCCC2C(=O)OC(C(C)CC2CCC(OCCO)C(OC)C2)CC(=O)C(C)C=C(C)C(O)C(OC)C(=O)C(C)CC(C)C=CC=CC=C1C` (stereo not given)?
Answer: viability, T/C (compound 0.000316 µM): 93.8% and 110%; viability, T/C (compound 0.001 µM): 91.7% and 92%; viability, T/C (compound 0.00316 µM): 79.7% and 77%; viability, T/C (compound 0.01 µM): 69.8% and 72.2%; viability, T/C (compound 0.0316 µM): 70.2% and 70.8%; viability, T/C (compound 0.1 µM): 67.6% and 62.2%; IC50: > 100 nM

Question: Which results are given for `COc1c(OCCCN2CCOCC2)ccc2c3n(c(=NC(=O)c4cnc(N)nc4)nc12)CCN3`?
Answer: viability, T/C (compound 0.00316 µM): 92.1% and 84.8%; viability, T/C (compound 0.01 µM): 69.9% and 64.1%; viability, T/C (compound 0.0316 µM): 47.1% and 47.6%; viability, T/C (compound 0.1 µM): 27.9% and 22.6%; viability, T/C (compound 0.316 µM): 14% and 13.8%; viability, T/C (compound 1 µM): 12.1% and 12%; IC50: 26.7 nM and 23.3 nM

Question: Which viability, T/C (compound 0.0316 µM) does the source give for `Cc1nc(NC(=O)N2CCCC2C(N)=O)sc1-c1ccnc(C(C)(C)C(F)(F)F)c1` (stereo not given) here?
Answer: 100% and 108%

Question: And the viability, T/C (compound 0.1 µM)?
Answer: 91.1% and 88.8%

Question: And the viability, T/C (compound 0.316 µM)?
Answer: 72.9% and 70.5%

Question: And the viability, T/C (compound 1 µM)?
Answer: 55.2% and 64.1%

Question: And the viability, T/C (compound 3.16 µM)?
Answer: 42.3% and 43.4%

Question: And the viability, T/C (compound 10 µM)?
Answer: 26.8% and 29.2%

Question: What about the IC50 of the same compound?
Answer: 1590 nM and 1990 nM

Question: With `Cn1cnc2c(F)c(Nc3ccc(Br)cc3Cl)c(C(=O)NOCCO)cc21` as the compound, how does the viability, T/C (compound 0.00949 µM) read?
Answer: 70.7% and 70.3%

Question: And the viability, T/C (compound 0.03 µM)?
Answer: 53.1% and 54.5%

Question: What about the viability, T/C (compound 0.0949 µM) of the same compound?
Answer: 38.9% and 38.3%

Question: What about the viability, T/C (compound 0.3 µM) of the same compound?
Answer: 34.6% and 32.9%

Question: And the viability, T/C (compound 0.949 µM)?
Answer: 28.6% and 27.2%

Question: What about the viability, T/C (compound 3 µM) of the same compound?
Answer: 21.2% and 21.8%

Question: And the IC50?
Answer: 40.9 nM
